Results published in patent US20210270852A1, “Methods of Detecting Neuroaxonal Dystrophy Disorders Associated with Vitamin E Deficiency and Uses Thereof” (The Regents of the University of California, priority 2018, published 2021).

What was measured:
[1] = Reference values of tocopherols, tocotrienols and metabolites in healthy grazing Thoroughbred horses (LC-MS); assay type: in vivo, horse
Procedure: (§1) In particular, the levels of a panel of tocopherols and tocopherol metabolites were assessed by liquid chromatography-mass spectrometry (LC-MS) in samples obtained from eNAD affected horses and matched healthy controls. Reference ranges of α-TOH, γ-TOH, α-TOT, γ-TOT, α-CEHC, γ-CEHC, and α-CMBHC were determined from serum, plasma and urine samples obtained from 16 healthy adult Thoroughbred horses on pasture. Next a supplementation trial was performed employing samples from eNAD-affected horses and neurologically normal age and sex-matched controls. Levels were assessed at baseline and after administration of bioavailable RRR-alpha-tocopherol according to the sample collection schedule described (see e.g., FIG. 2).
(§2) Analytes were simultaneously quantified via ultra-performance liquid chromatography-tandem mass spectrometry (LC-MS). LC-MS analysis was carried out using a Bruker EVOQ LC-TQ Mass Spectrometer coupled with a Bruker Advance HPLC system (Bruker Corp, Freemont, Calif., USA). Mass spectral data for α- and γ-tocopherols and α- and γ-tocotrienols were acquired in the positive ion electrospray ionization (ESI) mode with the following retention times (RT) and scan events: γ-tocotrienol—RT 11.65 min, MRM 411.0>151.0 (CE 19.0V), α-tocotrienol—RT 12.0 min, MRM 425.1>165.1 (CE 20.0V), γ-tocopherol—RT 13.3 min, MRM 417.2>151.0 (CE 25.0V), 5-methyl-D3,7-methyl-D3 (TD6)—RT 13.8 min, MRM 437.4>171.0 (CE 27.0V), and α-tocopherol—RT 13.8 min, MRM 431.2>165.0 (CE 25.0V). Mass spectral data for α- and γ-CEHC and α-CMBHC were acquired in the negative ion ESI mode with the following retention times (RT) and scan events: α-CMBHC—RT 7.45 min, MRM 319.1>150.1 (CE 22.0V), α-CEHC—RT 5.70 min, MRM 277.0>233.1 (CE 14.0V), and γ-CEHC—RT 5.30 min, MRM 263.1>219.1 (CE13.0V). Quantification was carried out using a 10-point calibration curve covering the range from 0.1 ng/mL to 5,000 ng/mL and linear regression. Each level of calibration standard contained the internal standard TD6 at 100 ng/mL and CUDA at 2 ng/mL, matching their final concentrations in the analysis samples.

[2] = Initial trials: detected range of plasma vitamin E metabolites (LC-MS); assay type: in vivo, horse
Procedure: as §2
The limit of detection (ng/mL) and detected range (ng/mL), respectively, for each plasma vitamin E metabolite measured in these initial trials were as follows: α-TOH (0.1; 500-1000), γ-TOH (0.2; 10-15), α-tocotrienol (0.2; 0.2-0.6), γ-tocotrienol (0.2; 5-10), α-CMBHC (<0.05; 0.1-0.4), γ-CEHC (<0.05; 0.2-0.6), and α-CEHC (<0.05; 0.1-0.2).

[3] = Supplementation trial: serum levels in eNAD-affected and control horses at baseline and after bioavailable RRR-alpha-tocopherol (LC-MS); assay type: in vivo, horse
Procedure: This example describes investigations into the role of metabolism of α-TOH in horses affected with eNAD/EDM. Accordingly, the rate of α-TOH and γ-TOH metabolism was determined through the measurement of CEHCs in healthy and eNAD-affected horses following α-TOH supplementation.
as §1, §2
Simultaneous quantification of α-TOH, γ-TOH, α-tocotrienol, γ-tocotrienol, α-CEHC, γ-CEHC, and α-CMBHC has not been previously performed in the horse. Data was Log-transformed. Correspondence between sample types (e.g., plasma vs. serum) was evaluated and statistical testing by Mixed-model ANOVA was performed (fixed variables=disease, time; randomized variable=horse; 2-way interactions; p<0.05).

[4] = earlier study; cited from earlier work
[5] = serum, healthy grazing TBs, tocotrienols

In the case of `Cc1c(C)c2c(c(C)c1O)CCC(C)(CCC(=O)O)O2` (stereo not drawn) [α-CEHC, alpha-carboxyethyl-hydroxychroman], the “mean value for healthy grazing TBs” value ([1]; in vivo) was 0.33±0.12, the “median value for healthy grazing TBs” value ([1]; in vivo) was 0.31 and the “range of values for healthy grazing TBs” value ([1]; in vivo) was 0.18-0.67. The “detected range of plasma vitamin E metabolite” value (“detected range” below) ([2]; in vivo) was 0.1 to 0.2 ng/mL.

For `Cc1c(C)c2c(c(C)c1O)CCC(C)(CCCC(C)C(=O)O)O2` (stereo not drawn) [α-CMBHC, 2-(4-Carboxy-4-methylbutyl)-6-hydroxy-2,5,7,8-tetramethylchroman], the “mean value for healthy grazing TBs” value ([1]; Thoroughbred, horse, in vivo) was 0.72±0.37, the “median value for healthy grazing TBs” value ([1]; Thoroughbred, horse, in vivo) was 0.6 and the “range of values for healthy grazing TBs” value ([1]; Thoroughbred, horse, in vivo) was 0.32-1.71. The “detected range” value ([2]; horse, in vivo) was 0.1 to 0.4 ng/mL, the “Serum α-CMBHC (median, range)” value ([3]; horse, in vivo, 56 day) was 0.32 (0.12-0.40) ng/mL and the concentration at 56 day ([3]; horse, in vivo, Serum α-CMBHC (median, range)) was 0.28 ng/mL.

In the case of `Cc1c(C)c2c(c(C)c1O)CC[C@@](C)(CCC[C@H](C)CCC[C@H](C)CCCC(C)C)O2` [α-TOH, alpha-tocopherol, reference compound], the “α-TOH absorption indices, eNAD-affected vs unaffected horses” value [4] is listed as “no significant differences”, the “mean value for healthy grazing TBs” value ([1]; in vivo) is listed as 4292±892 and the “median value for healthy grazing TBs” value ([1]; in vivo) is listed as 4348. The “range of values for healthy grazing TBs” value ([1]; in vivo) was 2855-6299, the “detected range” value ([2]; in vivo) was 500 to 1000 ng/mL and the “rate of α-TOH metabolism in eNAD horses vs control horses” value ([3]; in vivo) was “faster rates than control horses”.

In the case of `Cc1c(O)cc2c(c1C)OC(C)(CCC(=O)O)CC2` (stereo not shown) [γ-CEHC, gamma-carboxyethyl-hydroxychroman], the “mean value for healthy grazing TBs” value ([1]; in vivo) was 0.43±0.18, the “median value for healthy grazing TBs” value ([1]; in vivo) was 0.38 and the “range of values for healthy grazing TBs” value ([1]; in vivo) was 0.26-0.89. The “detected range” value ([2]; in vivo) was 0.2 to 0.6 ng/mL.

With `Cc1c(O)cc2c(c1C)O[C@](C)(CCC[C@H](C)CCC[C@H](C)CCCC(C)C)CC2` [γ-TOH, gamma-tocopherol] the “mean value for healthy grazing TBs” value ([1]; Thoroughbred, horse, in vivo) was 27.1±9.82, the “median value for healthy grazing TBs” value ([1]; Thoroughbred, horse, in vivo) was 25.6 and the “range of values for healthy grazing TBs” value ([1]; Thoroughbred, horse, in vivo) was 10.3-44.7. For the same molecule, the “detected range” value ([2]; horse, in vivo) was 10 to 15 ng/mL.

In the case of `CC(C)=CCC/C(C)=C/CC/C(C)=C/CC[C@]1(C)CCc2cc(O)c(C)c(C)c2O1` [γ-TOT, gamma-tocotrienol], the “mean value in healthy grazing TBs” value [1, 5] was 0.13 ± 0.36 ng/mL, the “median value in healthy grazing TBs” value [1, 5] was 0.02 ng/mL and the “range of values in healthy grazing TBs” value [1, 5] was 0.02 to 1.79 ng/mL. For the same molecule, the “detected range” value ([2]; plasma, initial trials) was 5 to 10 ng/mL and the “difference in serum tocotrienol levels with time or disease” value ([3]; serum, eNAD vs control horses, over time) was “no significant difference”.

With alpha-tocotrienol [α-TOT] the “mean value in healthy grazing TBs” value ([1]; in vivo) was 0.31 ± 0.36 ng/mL, the “median value in healthy grazing TBs” value ([1]; in vivo) was 0.15 ng/mL and the “range of values in healthy grazing TBs” value ([1]; in vivo) was 0.004 to 1 ng/mL. The “detected range” value ([2]; in vivo) was 0.2 to 0.6 ng/mL and the “difference in serum tocotrienol levels with time or disease” value ([3]; in vivo) was “no significant difference”.
